Source: US6225478A, “Iridoid derivatives and neovascularization inhibitors containing the same as active ingredient” (Tsumura & Co., priority 1999, dated 2001)

Experiments:
[1] = tested on: human umbilical-vein endothelial cells (HUVEC); experiment: Tube Formation Assay (TFA) Test, HUVEC in collagen gel; assay type: cell-based; details: Homo sapiens, HUVEC, Tables 75-83; 0.32 mM sample solution; method as for Compounds 1 through 60; read-out: TFA Inhibition rate (%)
Experimental: Furthermore, the sample liquids of compounds used in the CPA and CMA tests were prepared in the manner described below. Firstly, after weighing out each compound, a calculated amount of DMSO was added. After dissolving the compound in the DMSO, phosphate buffered physiological saline (PBS (-)) was added to bring the sample concentration to 1 mg/ml in PBS (-). The amount of DMSO used to dissolve the compounds was adjusted in advance to that the concentration of DMSO at that time was 5%. The resulting liquids were diluted 10-fold with 5% DMSO-PBS (-) solution to prepare sample solutions having a concentration of 0.1 mg/ml. In the TFA test, 320 μl of the prepared 1 mg/ml sample solutions were removed followed by addition of 680 μl of PBS (-) to prepare samples having a concentration of […]. Moreover, 100 μl of this solution was removed followed by addition of 900 μl of PBS (-) to dilute 10-fold and prepare samples having a concentration of 1 μg/ml. P [Cell Proliferation Assay (CPA) Test]
To begin with, 8 volumes of Type 1-A cell matrix (manufactured by Gibco Co.), 1 volume of 10×M119, and 1 volume of reconstituted buffer [200 mM HEPES, 0.05 N sodium hydroxide, 260 mM sodium bicarbonate] were slowly mixed under cooling with ice while avoiding bubbling to form a collagen gel. This collagen gel was distributed in a NUNC 24-well plate at 310 μl/well followed by allowing to stand undisturbed for 2 hours at 37° C. to solidify the gel.
Next, the 7th subculture of HUVEC (1×10^5 cells/ml) obtained from the first generation in the same manner as above were disseminated at 500 μl/well. The cells were cultured for 2 hours at 37° C. to allow the cells to make contact with the collagen. After then removing the medium by aspiration, 50 μl of sample solution were added followed by addition of 310 μl/well of freshly prepared collagen gel and culturing for 1 hour and 10 minutes at 37° C. to solidify the double-layer gel.
1 ml/well of M-199 medium containing 20% FCS, 30 ng /ml of b-FGF and 0.1 μM PMA were added to the wells followed by culturing for 20 hours at 37° C. in the presence of 5% CO2.
Measurement of the lengths of the formed tubes was performed using the public domain NIH Image with a computer.
Evaluation was performed by calculating the inhibition rate (%) of tube formation according to the following formula.
Inhibition rate (%)=100-((formed tube length in presence of sample-formed tube length in presence of control (-))×100/(formed tube length in presence of control (+)-formed tube length in presence of control (-)))
(§1) Samples were prepared using the present compounds of Compound No. I-60 through I-315. More specifically, 32 μl of a 20 mM sample solution dissolved in dimethylsulfoxide (DMSO) were removed and brought to a volume of 1 ml with phosphate-buffered saline (PBS) to prepare a sample solution having a concentration of 0.32 mM (containing 3.2% DMSO).
The testing method used for these compounds was the same as that used for the compounds of Compound No. 1 through 60 previously described.

HUFEC = experiment: Cell Migration Assay (CMA) Test, inhibitory rate with control (-) correction; assay type: cell-based, human; details: Homo sapiens, 24 h, 125 μl of 0.32 mM sample solution in 4.0 ml medium, 80% or more = remarkable
Experimental: as §1
After disseminating the 7th subculture of […] obtained from the first generation at 4 ml/well (3.0×10^5 cells/well) in a collagen-coated 6-well plate (NUNC), the cells were cultured for 48 hours at 37° C. in the presence of 5% CO2. The cells reached nearly a completely confluent state as a result of this culturing.
A double-edged, disposable razor blade was divided into four sections, of which one of those sections was pinched between a pair of forceps. Using this piece of razor blade, the cell surface in the above confluent state was scraped off.
After washing the surface of the wells from which the cells had been scraped off with medium, 4.0 ml of fresh M199 (2+) medium were placed in the wells. 4.0 ml of M199 medium were added to the control (-) well.
125 μl of sample solution (0.32 mM, containing 3.2% dimethylsulfoxide) were added to the wells.
125 μl of PBS solution containing 3.2% dimethylsulfoxide were added to the control wells instead of sample. The cells were cultured for 24 hours at 37° C. in the presence of 5% CO2. After discarding the culture liquid, the cells were fixed for 30 minutes with methanol. Next, after […] the cells for 4 hours with Giemsa stain, the plates were washed with tap water and air dried.
Measurement of cell migration was performed by microscopically counting the number of cells that had newly migrated within the range of a 1 mm×1 mm block. […] The total number of cells counted in blocks 1 through 5 were then totaled to determine the overall total number of cells. Four fields were counted for each well.
Evaluation was performed determining the cell migration inhibitory rate (%) according to the following equation.
Inhibitory rate=100-((number of migrating cells to which sample was added-number of migrating cells of control (-))×100/(number of migrating cells of control (+)-number of migrating cells of control (-)))
If this inhibitory rate was 80% or more, cell migration was assessed as being remarkable.

| SMILES | inhibition at 320 µM (stock) [1] [%] | inhibition at 320 µM (stock) (HUFEC) [%] |
| --- | --- | --- |
| COC(=O)C1=CO[C@@H](OC(=O)NCc2cccnc2)[C@H]2[C@@H]1CC[C@@H]2C [I-178] | 5.8 | 6.3 |
| COC(=O)C1=CO[C@@H](OC(=O)NCC2CC2)[C@@H]2C(C)=CC[C@H]12 [I-139] | 25.6 | 9.7 |
| COC(=O)C1=CO[C@@H](OC(=O)NN2CCN(C)CC2)[C@@H]2C(C)=CC[C@H]12 [I-73] | 8.2 | 15.6 |
| COC(=O)C1=CO[C@@H](OC(=O)NCCc2c[nH]c3ccccc23)[C@@H]2C(C)=CC[C@H]12 [I-115] | 6.8 | 3.1 |
| COC(=O)C1=CO[C@@H](OC(=O)NCc2ccc(OC(F)(F)F)cc2)[C@H]2[C@@H]1CC[C@@H]2C [I-211] | 20.4 | 32.1 |
| COC(=O)C1=CO[C@@H](OC(=O)N2CCSCC2)[C@H]2[C@@H]1CC[C@@H]2C [I-219] | 30.6 | 6.3 |
| COC(=O)C1=CO[C@@H](OC(=O)NC(C)C)[C@H]2[C@@H]1CC[C@@H]2C [I-261] | 32.1 | 37.5 |
| COC(=O)C1=CO[C@@H](OC(=O)NC2CCCCCC2)[C@@H]2C(C)=CC[C@H]12 [I-103] | 8.3 | 5.1 |
| COC(=O)C1=CO[C@@H](OC(=O)NCc2cccc(C(F)(F)F)c2)[C@@H]2C(C)=CC[C@H]12 [I-128] | 9.4 | 8.7 |
| COC(=O)C1=CO[C@@H](OC(=O)NCCN(C)C)[C@H]2[C@@H]1CC[C@@H]2C [I-222] | 20.8 | 3.7 |
| COC(=O)C1=CO[C@@H](OC(=O)Nc2ccc(F)cc2)[C@H]2[C@@H]1CC[C@@H]2C [I-264] | 29.2 | 6.7 |
| COC(=O)C1=CO[C@@H](OC(=O)Nc2cccc(C#N)c2)[C@@H]2C(C)=CC[C@H]12 [I-166] | 9.1 | 8.7 |
| COC(=O)C1=CO[C@@H](OC(=O)N(CCO)CCO)[C@@H]2C(C)=CC[C@H]12 [I-138] | 2.5 | 3.5 |
| COC(=O)C1=CO[C@@H](OC(=O)NC2Cc3ccccc3C2)[C@@H]2C(C)=CC[C@H]12 [I-145] | 17.5 | 27.3 |
| CCCN(C)C(=O)O[C@@H]1OC=C(C(=O)OC)[C@H]2CC[C@H](C)[C@@H]12 [I-193] | 6.7 | 5.3 |
| COC(=O)C1=CO[C@@H](OC(=O)NCCN2CCCCC2)[C@@H]2C(C)=CC[C@H]12 [I-118] | 5.1 | 31.3 |
| CCN1CCN(C(=O)O[C@@H]2OC=C(C(=O)OC)[C@H]3CC=C(C)[C@@H]23)CC1 [I-95] | 4.5 | 9.8 |
| C[C@]12O[C@H]1C[C@@H]1C(C(=O)N3CCN(CCO)CC3)=COC[C@@H]12 [I-304] | 11.2 | 9.4 |
| COC(=O)CNC(=O)O[C@@H]1OC=C(C(=O)OC)[C@H]2CC=C(C)[C@@H]12 [I-144] | 7.5 | 31.2 |
| COC(=O)C1=CO[C@@H](OC(=O)NCc2ccco2)[C@H]2[C@@H]1CC[C@@H]2C [I-215] | 8.1 | 21.5 |
| COC(=O)C1=CO[C@@H](OC(=S)N(C)C)[C@H]2[C@@H]1C[C@@H]1O[C@]21C [I-284] | 23.1 | 32.5 |
| COC(=O)C1=CO[C@@H](OC(=O)NCc2ccco2)[C@@H]2C(C)=CC[C@H]12 [I-110] | 4.6 | 7.8 |
| COC(=O)C1=CO[C@@H](OC(=O)N(C)CCc2ccc(OC)c(OC)c2)[C@H]2[C@@H]1CC[C@@H]2C [I-227] | 7.4 | 17.2 |
| COC(=O)C1=CO[C@@H](OC(=O)NCCOCCO)[C@@H]2C(C)=CC[C@H]12 [I-101] | 6.3 | 15.7 |
